According to patent US4335249A, “Herbicidal diphenyl ethers, sulfides, sulfoxides and sulfones” (Rohm and Haas Company, priority 1976, dated 1982):

Assays:
Assay type in all cases: in vivo
[1] = system: wild oats (Avena fatua); test: Preemergence herbicidal activity, wild oats; conditions: Pre
Method in brief: (§1)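 Pre: flats treated immediately post-planting. Post: treated 2 wk after germination. Spray = acetone/water solution, 50 gal/acre carrier, rate in lb/A. Read ~2 wk after treatment as average % plants killed.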

[2] = system: barnyardgrass (Echinochloa crusgalli); test: Postemergence herbicidal activity, barnyardgrass; conditions: Echinochloa crus-galli, post-emergence, 336 h, Post; for pest or weed control at 2241.7 g/ha: 2 lb/A
Method in brief: (§2)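 Flats of soil-planted weed seeds were treated either right after sowing (preemergence) or two weeks after germination (postemergence). Application was a spray of acetone solution diluted in water, 50 gallons per acre carrier, dosed in lb/A.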

[3] = system: barnyardgrass (Echinochloa crusgalli); test: Preemergence herbicidal activity, barnyardgrass; conditions: Pre
Method in brief: as §2

[4] = system: foxtail (Setaria spp.); test: Postemergence herbicidal activity, foxtail; conditions: Post
Method in brief: as §1

[5] = system: wild oats (Avena fatua); test: Postemergence herbicidal activity, wild oats; conditions: Post
Method in brief: as §1

[6] = system: velvetleaf (Abutilon theophrasti); test: Preemergence herbicidal activity, velvetleaf; conditions: Pre
Method in brief: as §1

[7] = system: morningglory (Ipomoca spp.); test: Postemergence herbicidal activity, morningglory
Method in brief: as §1

[8] = system: yellow nutsedge (Cyperus esculentus); test: Postemergence herbicidal activity, yellow nutsedge
Method in brief: as §1

[9] = system: morningglory (Ipomoca spp.); test: Preemergence herbicidal activity, morningglory
Method in brief: as §1

[10] = system: tomato (Lycopersicon esculentum); test: Postemergence herbicidal activity, tomato; conditions: Post
Method in brief: as §1

[11] = system: downybrome (Bromus tectorum); test: Postemergence herbicidal activity, downybrome; conditions: Post
Method in brief: as §1

[12] = system: foxtail (Setaria spp.); test: Preemergence herbicidal activity, foxtail; conditions: Pre
Method in brief: as §1

[13] = system: tomato (Lycopersicon esculentum); test: Preemergence herbicidal activity, tomato; conditions: Pre
Method in brief: as §1

[14] = system: cocklebur (Xanthium pensylvanicum); test: Preemergence herbicidal activity, cocklebur
Method in brief: as §1

[15] = system: marigold (Tagetes spp.); test: Postemergence herbicidal activity, marigold
Method in brief: as §1

[16] = system: downybrome (Bromus tectorum); test: Preemergence herbicidal activity, downybrome; conditions: Pre
Method in brief: as §1

[17] = system: velvetleaf (Abutilon theophrasti); test: Postemergence herbicidal activity, velvetleaf
Method in brief: as §2

[18] = system: marigold (Tagetes spp.); test: Preemergence herbicidal activity, marigold
Method in brief: as §1

[19] = system: cocklebur (Xanthium pensylvanicum); test: Postemergence herbicidal activity, cocklebur
Method in brief: as §1

[20] = system: yellow nutsedge (Cyperus esculentus); test: Preemergence herbicidal activity, yellow nutsedge
Method in brief: as §1

[21] = Avena fatua, pre-emergence, 336 h, 2 lb/A, read-out: % control, Wild oat
[22] = Echinochloa crus-galli, pre-emergence, 336 h, 2 lb/A
[23] = Setaria, post-emergence, 336 h, 2 lb/A
[24] = Avena fatua, post-emergence, 336 h, 2 lb/A, read-out: % control, Wild oat
[25] = Abutilon theophrasti, pre-emergence, 336 h, 2 lb/A
[26] = Ipomoea, post-emergence, 336 h, 2 lb/A
[27] = Cyperus, post-emergence, 336 h, 2 lb/A
[28] = Ipomoea, pre-emergence, 336 h, 2 lb/A
[29] = Solanum lycopersicum, post-emergence, 336 h, 2 lb/A
[30] = Bromus tectorum, post-emergence, 336 h, 2 lb/A
[31] = Setaria, pre-emergence, 336 h, 2 lb/A
[32] = Solanum lycopersicum, pre-emergence, 336 h, 2 lb/A
[33] = Xanthium strumarium, pre-emergence, 336 h, 2 lb/A
[34] = Bromus tectorum, pre-emergence, 336 h, 2 lb/A
[35] = Abutilon theophrasti, post-emergence, 336 h, 2 lb/A
[36] = Xanthium strumarium, post-emergence, 336 h, 2 lb/A
[37] = Cyperus, pre-emergence, 336 h, 2 lb/A

Row | Compound | pest or weed control at 2241.7 g/ha [1, 21] [%] | pest or weed control at 2241.7 g/ha [2] [%] | pest or weed control at 2241.7 g/ha [3, 22] [%] | pest or weed control at 2241.7 g/ha [4, 23] [%] | pest or weed control at 2241.7 g/ha [5, 24] [%] | pest or weed control at 2241.7 g/ha [6, 25] [%] | pest or weed control at 2241.7 g/ha [7, 26] [%] | pest or weed control at 2241.7 g/ha [8, 27] [%] | pest or weed control at 2241.7 g/ha [9, 28] [%] | pest or weed control at 2241.7 g/ha [10, 29] [%] | pest or weed control at 2241.7 g/ha [11, 30] [%] | pest or weed control at 2241.7 g/ha [12, 31] [%] | pest or weed control at 2241.7 g/ha [13, 32] [%] | pest or weed control at 2241.7 g/ha [14, 33] [%] | pest or weed control at 2241.7 g/ha ([15]; post-emergence, 336 h, 2 lb/A) [%] | pest or weed control at 2241.7 g/ha [16, 34] [%] | pest or weed control at 2241.7 g/ha [17, 35] [%] | pest or weed control at 2241.7 g/ha ([18]; pre-emergence, 336 h, 2 lb/A) [%] | pest or weed control at 2241.7 g/ha [19, 36] [%] | pest or weed control at 2241.7 g/ha [20, 37] [%] | also measured
1 | CC(Oc1ccc(Oc2ccc(C(F)(F)F)cc2)cc1)C(=O)O (centres unmarked) [Example 29] | 95 | 100 | 100 | 100 | 100 | 0 | 0 | 0 | 0 | 30 | 80 | 100 | 0 | 0 | 30 | 99 | 0 | 0 | 0 | 0 | –
2 | CCOC(=O)C(C)Oc1ccc([S+]([O-])c2ccc(C(F)(F)F)cc2Cl)cc1 (centres unmarked) [Example 42] | – | – | – | – | – | – | – | – | – | – | – | – | – | – | – | – | – | – | – | – | pest or weed control at 4483.4 g/ha ([1]; Avena fatua, pre-emergence, 336 h, 4 lb/A, read-out: % control, Wild oat): 20%; pest or weed control at 4483.4 g/ha ([2]; 4 lb/A): 0%; pest or weed control at 4483.4 g/ha ([3]; Echinochloa crus-galli, pre-emergence, 336 h, 4 lb/A): 95%; pest or weed control at 4483.4 g/ha ([4]; Setaria, post-emergence, 336 h, 4 lb/A): 0%; pest or weed control at 4483.4 g/ha ([5]; Avena fatua, post-emergence, 336 h, 4 lb/A, read-out: % control, Wild oat): 0%; pest or weed control at 4483.4 g/ha ([6]; Abutilon theophrasti, pre-emergence, 336 h, 4 lb/A): 40%; pest or weed control at 4483.4 g/ha ([7]; Ipomoea, post-emergence, 336 h, 4 lb/A): 0%; pest or weed control at 4483.4 g/ha ([8]; Cyperus, post-emergence, 336 h, 4 lb/A): 0%; pest or weed control at 4483.4 g/ha ([9]; Ipomoea, pre-emergence, 336 h, 4 lb/A): 0%; pest or weed control at 4483.4 g/ha ([10]; Solanum lycopersicum, post-emergence, 336 h, 4 lb/A): 0%; pest or weed control at 4483.4 g/ha ([11]; Bromus tectorum, post-emergence, 336 h, 4 lb/A): 0%; pest or weed control at 4483.4 g/ha ([12]; Setaria, pre-emergence, 336 h, 4 lb/A): 99%; pest or weed control at 4483.4 g/ha ([13]; Solanum lycopersicum, pre-emergence, 336 h, 4 lb/A): 0%; pest or weed control at 4483.4 g/ha ([14]; Xanthium strumarium, pre-emergence, 336 h, 4 lb/A): 0%; pest or weed control at 4483.4 g/ha ([15]; post-emergence, 336 h, 4 lb/A): 0%; pest or weed control at 4483.4 g/ha ([16]; Bromus tectorum, pre-emergence, 336 h, 4 lb/A): 40%; pest or weed control at 4483.4 g/ha ([17]; Abutilon theophrasti, post-emergence, 336 h, 4 lb/A): 0%; pest or weed control at 4483.4 g/ha ([18]; pre-emergence, 336 h, 4 lb/A): 0%; pest or weed control at 4483.4 g/ha ([19]; Xanthium strumarium, post-emergence, 336 h, 4 lb/A): 0%; pest or weed control at 4483.4 g/ha ([20]; Cyperus, pre-emergence, 336 h, 4 lb/A): 0%
3 | CCOC(=O)C(C)Oc1ccc(Sc2ccc(C(F)(F)F)cc2Cl)cc1 (centres unmarked) [Example 3, Ethyl 2-[4-(2-Chloro-4-trifluoromethylphenylthio)phenoxy] propionate] | 30 | 70 | 95 | 100 | 99 | 0 | 50 | 66 | 0 | 70 | 90 | 100 | 0 | 0 | 50 | 40 | 70 | 0 | 20 | 0 | –
4 | CC(Oc1ccc(Oc2ccc(C(F)(F)F)cc2Cl)cc1)C(=O)O (centres unmarked) [Example 15] | – | 90 | – | – | – | – | – | – | – | – | – | – | – | – | – | – | – | – | – | – | % control, Wild oat ([1]; 2 lb/A): 0%; % control, Barnyardgrass ([3]; 2 lb/A): 100%; % control, Foxtail ([4]; 2 lb/A): 90%; % control, Wild oat ([5]; 2 lb/A): 20%; % control, Velvetleaf ([6]; 2 lb/A): 0%; % control, Morningglory ([7]; Post, 2 lb/A): 0%; % control, Nutsedge ([8]; Post, 2 lb/A): 0%; % control, Morningglory ([9]; Pre, 2 lb/A): 40%; % control, Tomato ([10]; 2 lb/A): 0%; % control, Downybrome ([11]; 2 lb/A): 0%; % control, Foxtail ([12]; 2 lb/A): 100%; % control, Tomato ([13]; 2 lb/A): 0%; % control, Cocklebur ([14]; Pre, 2 lb/A): 0%; % control, Marigold ([15]; Post, 2 lb/A): 0%; % control, Downybrome ([16]; 2 lb/A): 0%; % control, Velvetleaf ([17]; Post, 2 lb/A): 0%; % control, Marigold ([18]; Pre, 2 lb/A): 0%; % control, Cocklebur ([19]; Post, 2 lb/A): 0%; % control, Nutsedge ([20]; Pre, 2 lb/A): 0%
